{
  "source": "patent US20260265409A1",
  "about": "“ANTIBODY FUSION PROTEIN TARGETING FAP AND TGFbeta, AND USE THEREOF” (NANJING LEADS BIOLABS CO., LTD., priority 2022, published 2026)",
  "key": {"[1]": {"molecular_target": "T1, human FAP protein expressed on 293T cells (Homo sapiens, UniProt Q12884)", "T1 construct": "expressed in transfected cells; host or cells: 293T cells, PIRES-puro3 vector, puromycin selection", "T1 sequence (Q12884 1-760)": "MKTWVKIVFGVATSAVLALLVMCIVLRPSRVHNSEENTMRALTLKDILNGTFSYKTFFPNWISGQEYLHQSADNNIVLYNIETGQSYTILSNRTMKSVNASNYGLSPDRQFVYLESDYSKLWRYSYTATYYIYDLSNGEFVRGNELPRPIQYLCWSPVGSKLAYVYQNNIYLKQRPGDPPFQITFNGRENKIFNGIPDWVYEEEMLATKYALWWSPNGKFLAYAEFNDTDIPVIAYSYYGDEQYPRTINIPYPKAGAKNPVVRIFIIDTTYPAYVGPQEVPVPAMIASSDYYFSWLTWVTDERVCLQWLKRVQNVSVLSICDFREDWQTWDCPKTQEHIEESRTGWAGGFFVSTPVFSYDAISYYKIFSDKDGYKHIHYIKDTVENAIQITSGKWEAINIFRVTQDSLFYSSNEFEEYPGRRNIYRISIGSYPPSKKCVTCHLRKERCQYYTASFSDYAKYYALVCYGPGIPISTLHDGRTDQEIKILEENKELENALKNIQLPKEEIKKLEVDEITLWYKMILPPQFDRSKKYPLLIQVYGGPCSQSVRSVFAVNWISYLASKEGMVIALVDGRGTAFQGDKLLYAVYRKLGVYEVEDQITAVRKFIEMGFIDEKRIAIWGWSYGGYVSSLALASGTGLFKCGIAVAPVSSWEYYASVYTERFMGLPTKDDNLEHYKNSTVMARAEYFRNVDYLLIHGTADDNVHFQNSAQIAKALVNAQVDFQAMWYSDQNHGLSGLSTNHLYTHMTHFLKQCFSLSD", "test": "Cell binding assay by flow cytometry, 293T-human FAP cells", "method": "Whether the humanized antibody of the present disclosure can bind to human FAP protein stably expressed on the surface of 293T cells was determined by a cell binding assay. Firstly, the sequences encoding human FAP protein (NM_004460.2, SEQ ID NO: 31) and cynomolgus FAP (XM_005573320.2, SEQ ID NO: 32) were cloned into expression vector PIRES-puro3 (Clontech, Cat #631619) […]. The vectors were used to transfect 293T cells. […]\nThe human FAP antibodies (huF19-LG and sibrotuzumab) were 4-fold serially diluted from a starting concentration of 200 nM to a total of 8 concentrations and added to the cells for co-incubation at 4° C. for 30 min. […] The cells were washed twice with PBS and then resuspended, and finally, fluorescence signals were detected using the […] (BD Bioscience) flow cytometer.\nWhether the mutant antibody in the present disclosure can bind to human or cynomolgus FAP protein stably expressed on the surface of 293T cells was determined by a cell binding assay. […] The cells were washed twice with PBS and then resuspended, and finally, fluorescence signals were detected using the […] (BD Bioscience) flow cytometer. […]"}, "[2]": {"tested_on": "bilateral idiopathic pulmonary fibrosis model", "test": "Bleomycin-induced idiopathic pulmonary fibrosis (IPF) model in mice", "assay_type": "in vivo, C57BL/6 mice", "method": "In this animal pharmacodynamic study, a bilateral idiopathic pulmonary fibrosis model was induced using bleomycin instillation into the trachea of mice supplied by KCl BioTech. The efficacy of the surrogate antibody fusion protein 28H1-Trap on pulmonary fibrosis was evaluated in this model. C57BL/6 mice (Cavens Biogle (Suzhou) Co., Ltd.) aged 8-9 weeks were treated from the day of modeling and the induced pulmonary fibrosis model was established by tracheal instillation of bleomycin after the treatment. In the next three weeks, intraperitoneal doses were given twice weekly, and the body weight was measured once every two days. The specific treatments and dosages are shown in the following table: Mice were euthanized at the end of study. At the end of study, both lungs were collected from 15 surviving animals in each group (6 in the normal group) and fixed by formalin perfusion. Histological sections were made, stained with Masson, imaged (FIGS. 7A-H), and graded by pulmonary fibrosis scores. Pathological staining results are shown in FIG. 7, where black arrows indicate intact alveolar structures and the dark interstitial parts indicate collagen accumulation."}, "[3]": {"tested_on": "renal interstitium fibrosis model induced by left ureter ligation", "test": "UUO renal interstitium fibrosis model in mice", "assay_type": "in vivo, C57BL/6J mice", "conditions": "20 mg/kg and 3 mg/kg intraperitoneal every other day, day 10; FIG. 9, FIG. 10", "method": "In this animal pharmacodynamic study, a renal interstitium fibrosis model was induced by left ureter ligation in mice supplied by KCl BioTech. The efficacy of the surrogate antibody fusion protein 28H1-Trap on renal fibrosis was evaluated in this model. C57BL/6J mice (Shanghai Jihui Laboratory Animal Care Co., Ltd.) aged 8-9 weeks were randomized by weight. On the day of modeling (day 0), the mice in groups 2-4 were anesthetized with isoflurane. The abdominal cavity was opened along the ventral midline, and the left ureter of the animal was ligated. The abdomen was closed and the skin was sutured. The treatment was given intraperitoneally on the day of modeling. The animals in group 1 were anesthetized with isoflurane. The abdominal cavity was opened along the ventral midline and closed immediately, and the skin was sutured. In the next 10 days, the treatments were given intraperitoneally once every other day, and the body weight was measured once every two days. The specific treatments and dosages are shown in the following table: The animals were given an I.P. injection of the test substance on days 0, 2, 4, 6, and 8, and the animals were given the analgesic meloxicam subcutaneously on days 1-3. The body weight was recorded daily. The kidney on the UUO side were scored for fibrosis by Masson staining. […] The degree of fibrosis of the kidney was evaluated (see FIG. 10)."}},
  "data": [
    {"substance": "28H1-Trap: pharmacodynamic surrogate fusion protein: anti-FAP antibody 28H1 (WO2012020006) fused to TGFβR2 extracellular domain; heavy chain SEQ ID NO: 29, light chain SEQ ID NO: 28", "values": [
      {"measurement": "binding to human FAP protein expressed on engineered 293T cells (FACS)", "setting": "[1]", "result": "confirmed to bind to human FAP at cellular level"},
      {"measurement": "pulmonary fibrosis grading (Ashcroft scoring)", "setting": "[2]; 20 mg/kg and 3 mg/kg vs modeling group, FIG. 8B", "result": "reduced the pulmonary fibrotic lesions in a dose-dependent manner"},
      {"measurement": "grade of pulmonary fibrotic lesions (Masson staining, pathological sections)", "setting": "[2]; 20 mg/kg intraperitoneal twice weekly, 21 days, vs modeling group, FIG. 7", "result": "could reduce the grade of pulmonary fibrotic lesions"},
      {"measurement": "pulmonary fibrosis staining scoring", "setting": "[2]; high dose (20 mg/kg) vs modeling group, FIG. 8A", "result": "can reduce fibrotic lesions in the lungs at a high dose"},
      {"measurement": "kidney fibrosis score by Masson staining", "setting": "[3]", "result": "significant dose-dependent ameliorative effect on the fibrosis in the renal cortex of the kidney"}
    ]}
  ]
}
